The values below come from patent US20240150396A1 (The Texas A&M University System, priority 2021, published 2024).

The test system of assay [1] is T. cruzi (Ca-I/72) in C2C12 murine cardiomyoblasts. Put plainly: T. cruzi-infected murine cardiomyoblasts (C2C12). To be noted: for EC50: read-out: EC50 T. cruzi-infected cardiomyoblasts. The class given is cell-based, Trypanosoma cruzi. The method, boiled down:
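C2C12 mouse cardiomyoblasts infected with T. cruzi Ca-I/72 (10^3 and 10^4 parasites) and exposed to 3-fold serial dilutions of inhibitor from a 10 μM maximum, 48 h at 37° C. After PFA fixation and DAPI staining, automated imaging quantified parasites and host cells, giving EC50 and host CC50.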

Assay [2] concerns T. cruzi epimastigotes (strain Y). As to the kind of experiment: Growth of axenic cultures of T. cruzi epimastigotes.
The test system of assay [3] is T. b. brucei procyclic forms. Put plainly: Growth of axenic cultures of T. b. brucei procyclic forms (PCFs). The class given is cell-based, Trypanosoma brucei brucei. The conditions noted are these: axenic culture; read-out: EC50 T. b. brucei PCF.
The target in a further assay is cruzain (Trypanosoma cruzi, UniProt P25779). As to the kind of experiment: biochemical. The essentials: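 Fluorogenic assay at 25 °C following AMC release (ex 360/em 460 nm), with typically 0.2 nM cruzain and 10% DMSO, at pH 7.5 or 5.5 buffer with 5 mM DTT.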
Assay [4] in a line: Thiolation of inhibitors with glutathione, LCMS. The class given is physicochemical. To be noted: for Rate of Thiolation, k: 1 mM glutathione, 0.5 mM compound, Tris pH 8.0, 10% DMSO, room temperature. As for the experimental part: Samples were analyzed by HPLC-MS (as described above) by injecting 0.01 mL aliquots onto a Luna […] C18(2) 100 Å, 4.6 mm, 50 mm column (Phenomenex) using the HPLC method described in the chemistry section at 0-6 h time points. […] Integration of the chromatographic peaks of the inhibitors and their GSH adducts at each time point was used to determine the rate of GSH adduct formation.

A further assay addresses human cathepsin S (Homo sapiens (Human), UniProt P25774). As to the kind of experiment: Human cathepsin S inhibition. The class given is biochemical. To be noted: pH 5.5, 25° C., 10% DMSO. The protocol:
Cruzain inhibitors were added at seven concentrations and one fixed concentration of Cbz-Phe-Arg-AMC, and time courses of AMC formation were analyzed as with cruzain.

[5] abbreviates: read-out: T. cruzi axenic culture EC50, epimastigotes.
[6] abbreviates: conversion of EI* back to EI, from kobs replot or recovery after preincubation and dilution.
The mark [7] stands for this setting: obtained >10 minutes following initiation of reaction by addition of enzyme, pH 7.5, read-out: Ki* Cruzain.
Where [8] appears, read: apparent initial inhibition constant, 25° C., pH 7.5, read-out: Ki.
[9] abbreviates: apparent tight-binding inhibition constant, 25° C., pH 7.5, read-out: Ki*.
Setting [10] is: Trypanosoma cruzi, C2C12, C2C12 murine cardiomyoblasts.
Setting [11] is: Ki* Cruzain, obtained >10 minutes following initiation of reaction by addition of enzyme, pH 7.5.

“And” between values parts separate entries of the source, which are not always exact repeats. Identical values can stand only once. Like-named read-outs stand apart in the source and are kept apart here.

Chain of human cathepsin S (P25774 115-331): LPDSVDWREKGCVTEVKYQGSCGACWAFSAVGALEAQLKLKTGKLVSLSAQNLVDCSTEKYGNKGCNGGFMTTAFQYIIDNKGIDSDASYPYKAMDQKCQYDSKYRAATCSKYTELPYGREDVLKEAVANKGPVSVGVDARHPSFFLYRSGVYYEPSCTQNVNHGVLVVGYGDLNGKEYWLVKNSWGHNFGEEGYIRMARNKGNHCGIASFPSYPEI
Chain of cruzain (P25779 123-467 limits assumed): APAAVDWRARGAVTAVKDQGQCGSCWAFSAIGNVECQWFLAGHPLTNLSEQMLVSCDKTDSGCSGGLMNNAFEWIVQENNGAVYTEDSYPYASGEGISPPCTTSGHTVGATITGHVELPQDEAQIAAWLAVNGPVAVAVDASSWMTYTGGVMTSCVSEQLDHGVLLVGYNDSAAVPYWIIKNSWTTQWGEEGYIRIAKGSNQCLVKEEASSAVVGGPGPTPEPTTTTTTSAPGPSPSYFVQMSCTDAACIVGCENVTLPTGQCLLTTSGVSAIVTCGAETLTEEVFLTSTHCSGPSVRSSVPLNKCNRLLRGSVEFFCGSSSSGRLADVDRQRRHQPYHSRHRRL

Broadly, the EC50 is the concentration giving half of the maximal effect. On to `CN1CCN(C(=O)NC(Cc2ccccc2)C(=O)NC2Cc3ccccc3OC2O)CC1` (stereo not drawn) [Compound 36], for which the EC50 was 29000 nM and ~30000 nM in assay [1] (C2C12 murine cardiomyoblasts); 540 nM in assay [2] (setting [5]); 4000 nM in assay [3]. Besides, at cruzain, the “ratio of Ki* of SMAI to Ki* of its free aldehyde” value stood at 94. The k4 result on cruzain (setting [6]) was “(1.8±0.7)×10^−4 s^−1”. Moreover, the Ki at cruzain (setting [7]) came out at 47 nM. Besides, on cruzain (preincubation, dilution, recovery of cruzain activity), the “residence time τ” value was 26 min.
Turning to `C[n+]1ccccc1/C=C/[C@H](CCc1ccccc1)NC(=O)[C@H](Cc1ccccc1)NC(=O)OCc1ccccc1` [Compound 15, 2-((S,E)-3-((S)-2-(((Benzyloxy)carbonyl)amino)-3-phenylpropanamido)-5-phenylpent-1-en-1-yl)-1-methylpyridin-1-ium], the 50% effective concentration (EC50) is 5400 ± 900 nM in assay [1] (C2C12 murine cardiomyoblasts); 2000 to 20000 nM and 2100 nM in assay [2] (setting [5]); 5000 to 15000 nM and 5900 nM in assay [3]. Further, the “apparent rate of GSH addition relative to K11777” value in assay [4] is listed as 8 fold. Further, the “Rate of Thiolation, k” value in assay [4] is 0.9 ± 0.067 M⁻¹ s⁻¹. Also, the Ki on human cathepsin S is 320 ± 40 nM; on cruzain (setting [8]), 760 ± 40 nM; at cruzain (setting [9]), 126 nM; at cruzain (calculated from global fitting to eq 6, read-out: Ki*), 600 ± 200 nM; at cruzain (global fitting to eq 6, read-out: Ki) it was 4300 ± 100 nM; on cruzain (setting [7]), 120 to 400 nM. The Ki on cruzain (pH 5.5, 25° C., 10% DMSO, read-out: Ki* Cruzain) is 88 ± 2 nM; at cruzain (pH 5.5, read-out: Ki* Cruzain), 88 nM; on cruzain (replot of kobs vs inhibitor, fitting to eq 4, read-out: Ki) it was 2000 ± 900 nM. Further, the k4 result at cruzain (setting [6]) was “≈ 0 s^−1”; on cruzain (global fitting to eq 6), 0.00019 ± 0.00005 s⁻¹. Also, the k3 at cruzain (fitting to eq 4) came to 0.004 ± 0.001 s⁻¹; at cruzain (global fitting to eq 6), 0.0012 ± 0.0004 s⁻¹. The “Ki lower than the values with the three human cathepsins” value on cruzain (pH 5.5) is “over 10 fold”.
Consider `O=C(N[C@@H](Cc1ccccc1)C(=O)N[C@H](/C=C/c1ccccn1)Cc1ccccc1)OCc1ccccc1` [Compound 11, Benzyl ((S)-1-Oxo-3-phenyl-1-(((S,E)-1-phenyl-4-(pyridin-2-yl)-but-3-en-2-yl)amino)propan-2-yl)carbamate], for which the EC50 in assay [1] (C2C12 murine cardiomyoblasts) was 5000 to 10000 nM; in assay [1] (setting [10]) it was 5000 to 8000 nM; in assay [2] (Trypanosoma cruzi, read-out: T. cruzi axenic culture EC50, epimastigotes) it was more than 20000 nM. Besides, the “Rate of Thiolation, k” value in assay [4] is on record as “Negligible”. Besides, the “T. cruzi axenic culture EC50” value in assay [2] (epimastigotes) is recorded as “poorly effective”. Moreover, the Ki at human cathepsin S is 1800 ± 300 nM; on cruzain (setting [11]), 120 to 400 nM; at cruzain (setting [8]), 5500 ± 400 nM; at cruzain (setting [9]), 310 nM. Besides, the k4 on cruzain (setting [6]) was determined as 0.0012 ± 0.0002 s⁻¹.
Regarding `O=C(N[C@@H](Cc1ccccc1)C(=O)N[C@H]1Cc2ccccc2OC1O)OCc1ccccc1` (stereo partly drawn) [Compound 30], the 50% effective concentration (EC50) is 5000 to 8000 nM and 3000 nM and 3000 to 5700 nM in assay [1] (C2C12 murine cardiomyoblasts); 2000 to 20000 nM in assay [2] (setting [5]); 17000 nM in assay [3]. The “ratio of Ki* of SMAI to Ki* of its free aldehyde” value at cruzain is 110. For the same molecule, the Ki at cruzain (setting [7]) amounted to 49 nM.
As to `C[n+]1ccccc1/C=C/[C@H](Cc1ccccc1)NC(=O)[C@H](Cc1ccccc1)NC(=O)OCc1ccccc1.[I-]` [Compound 12, 2-((S,E)-3-((S)-2-(((Benzyloxy)carbonyl)amino)-3-phenylpropanamido)-4-phenylbut-1-en-1-yl)-1-methylpyridin-1-ium Iodide], the EC50 is 9900 ± 500 nM in assay [1] (C2C12 murine cardiomyoblasts) and 5000 to 8000 nM in assay [1] (setting [10]). Moreover, the “Selectivity Index CC50/EC50” value in assay [1] (CC50 human dermal fibroblasts / EC50 infected cardiomyoblasts) was more than 10. In addition, the “apparent rate of GSH addition relative to K11777” value in assay [4] is on record as 8 fold. The “Rate of Thiolation, k” value in assay [4] is 0.617 ± 0.033 M⁻¹ s⁻¹. Also, the Ki at human cathepsin S is 870 ± 70 nM; at cruzain (setting [11]), 120 to 400 nM; on cruzain (Ki*, apparent tight-binding inhibition constant, 25° C., pH 7.5), 120 nM; at cruzain (setting [8]) it was 3800 ± 400 nM; at cruzain (setting [9]) it was 280 ± 80 nM.
